From paper PMC2962915, “The –SH Protection Method for Determining Accurate Kd Values for Enzyme-Coenzyme Complexes of NAD^+-Dependent Glutamate Dehydrogenase and Engineered Mutants: Evidence for Nonproductive NADPH Complexes” (Enzyme Research, 2010)
Where two headings read alike, the source gives them in different places.

Target: T1, clostridial glutamate dehydrogenase (GDH) ([Clostridium] symbiosum, UniProt P24295)
T1 construct: no tag mentioned
T1 sequence (P24295 2-450): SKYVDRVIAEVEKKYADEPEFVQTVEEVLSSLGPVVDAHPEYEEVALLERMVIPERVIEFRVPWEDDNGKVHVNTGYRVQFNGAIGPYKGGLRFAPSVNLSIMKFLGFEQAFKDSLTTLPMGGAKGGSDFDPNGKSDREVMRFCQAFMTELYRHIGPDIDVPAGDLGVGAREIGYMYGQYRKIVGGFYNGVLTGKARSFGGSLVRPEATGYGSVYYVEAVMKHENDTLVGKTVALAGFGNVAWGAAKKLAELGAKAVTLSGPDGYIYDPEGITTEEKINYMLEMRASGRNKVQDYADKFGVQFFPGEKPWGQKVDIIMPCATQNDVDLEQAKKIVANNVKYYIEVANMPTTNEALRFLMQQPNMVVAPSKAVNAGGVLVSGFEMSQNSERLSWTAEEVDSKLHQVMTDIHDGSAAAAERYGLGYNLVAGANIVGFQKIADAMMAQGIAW
Test: protection against DTNB inactivation
Type: biochemical
Settings: 0.1 M potassium phosphate, pH 7.0, 25°C, 200 μM DTNB, competitive with DTNB at coenzyme site, Kd corrected for DTNB
Source text: protection against DTNB inactivation on clostridial glutamate dehydrogenase (GDH)

## NC(=O)C1=CN([C@@H]2O[C@H](COP(=O)(O)OP(=O)(O)OC[C@H]3O[C@@H](n4cnc5c(N)ncnc54)[C@H](OP(=O)(O)O)[C@@H]3O)[C@@H](O)[C@H]2O)C=CC1 [NADPH]
read-out: K dNADPH
  Kd: 23 ± 1 µM

## NC(=O)C1=CN([C@@H]2O[C@H](COP(=O)(O)OP(=O)(O)OC[C@H]3O[C@@H](n4cnc5c(N)ncnc54)[C@H](O)[C@@H]3O)[C@@H](O)[C@H]2O)C=CC1 [NADH]
read-out: K dNADH
  Kd: 24 ± 1 µM

## NC(=O)c1ccc[n+]([C@@H]2O[C@H](COP(=O)(O)OP(=O)(O)OC[C@H]3O[C@@H](n4cnc5c(N)ncnc54)[C@H](O)[C@@H]3O)[C@@H](O)[C@H]2O)c1 [NAD^+]
read-out: K dNAD+
  Kd: 335 ± 17 µM
